“And” between values parts separate entries of the source, which are not always exact repeats. Equal values may be shown once. Toxic doses and inconclusive results are not listed.
Tested on: P388 leukemia ip, CD2F1 mice, survival T/C
Experiment: NCI In Vivo Anticancer Drug Screen. Data for tumor model P388 Leukemia (intraperitoneal) in CD2F1 (CDF1) mice
Conditions: endpoint: median survival time, higher = longer survival
Method in brief: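 Mice carrying the transplanted tumor received test compound or vehicle. Survival was recorded in each group, and the value is the treated-group measurement divided by that of the vehicle-treated control group.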

[1] = dose: 100.0 mg/kg/injection, schedule: Q01DX005 (ip), vehicle: saline
[2] = dose: 200.0 mg/kg/injection, schedule: Q01DX005 (ip), vehicle: saline
[3] = dose: 12.5 mg/kg/injection, schedule: Q01DX009 (ip), vehicle: saline with Tween-80
[4] = dose: 50.0 mg/kg/injection, schedule: Q01DX005 (ip), vehicle: saline with Tween-80
[5] = dose: 100.0 mg/kg/injection, schedule: Q01DX005 (ip), vehicle: saline with Tween-80
[6] = dose: 200.0 mg/kg/injection, schedule: Q01DX005 (ip), vehicle: saline with Tween-80
[7] = dose: 50.0 mg/kg/injection, schedule: Q01DX009 (ip), vehicle: Klucel (hydroxypropylcellulose) (HPC)
[8] = dose: 100.0 mg/kg/injection, schedule: Q01DX009 (ip), vehicle: Klucel (hydroxypropylcellulose) (HPC)
[9] = dose: 200.0 mg/kg/injection, schedule: Q01DX009 (ip), vehicle: Klucel (hydroxypropylcellulose) (HPC)
[10] = dose: 60.0 mg/kg/injection, schedule: Q01DX005 (ip), vehicle: saline with Tween-80
[11] = dose: 120.0 mg/kg/injection, schedule: Q01DX005 (ip), vehicle: saline with Tween-80
[12] = dose: 240.0 mg/kg/injection, schedule: Q01DX005 (ip), vehicle: saline with Tween-80

Cn1c(=O)[nH]c(=O)c2nc(-c3ccccc3)cnc21
T/C (dose: 100.0 mg/kg/injection, schedule: Q04DX002 (ip), vehicle: Klucel (hydroxypropylcellulose) (HPC)): 105 % of control
T/C (dose: 400.0 mg/kg/injection, schedule: Q04DX002 (ip), vehicle: Klucel (hydroxypropylcellulose) (HPC)): 86 % of control

ClCC[N+]12CC[N+](CCCl)(CC1)C2 (tested in a mixture with another compound)
T/C (dose: 12.5 mg/kg/injection, schedule: Q01DX009 (ip), vehicle: water): 105 % of control and 118 % of control
T/C (dose: 25.0 mg/kg/injection, schedule: Q01DX005 (ip), vehicle: saline): 116 % of control
T/C (dose: 25.0 mg/kg/injection, schedule: Q01DX009 (ip), vehicle: water): 119 % of control
T/C (dose: 50.0 mg/kg/injection, schedule: Q01DX009 (ip), vehicle: saline): 159 % of control and 171 % of control
T/C (dose: 50.0 mg/kg/injection, schedule: Q01DX009 (ip), vehicle: water): 150 % of control
T/C [1]: 162 % of control and 168 % of control
T/C (dose: 100.0 mg/kg/injection, schedule: Q01DX009 (ip), vehicle: saline): 197 % of control and 198 % of control
T/C (dose: 100.0 mg/kg/injection, schedule: Q01DX009 (ip), vehicle: water): 160 % of control and 196 % of control
T/C [2]: 161 % of control and 212 % of control
T/C (dose: 200.0 mg/kg/injection, schedule: Q01DX009 (ip), vehicle: saline): 240 % of control and 263 % of control
T/C (dose: 200.0 mg/kg/injection, schedule: Q01DX009 (ip), vehicle: water): 188 % of control
T/C (dose: 400.0 mg/kg/injection, schedule: Q01DX009 (ip), vehicle: saline): 281 % of control and 296 % of control

Cc1cc(=O)[nH]c2c1ccc1ccccc12
T/C (dose: 100.0 mg/kg/injection, schedule: Q04DX002 (ip), vehicle: saline with Tween-80): 95 % of control
T/C (dose: 200.0 mg/kg/injection, schedule: Q04DX002 (ip), vehicle: saline with Tween-80): 93 % of control
T/C (dose: 400.0 mg/kg/injection, schedule: Q04DX002 (ip), vehicle: saline with Tween-80): 99 % of control

Clc1ccc(N2C(c3ccccc3)=N[C@@H](N3CCCCC3)[C@@H]2N2CCCCC2)cc1
T/C (dose: 50.0 mg/kg/injection, schedule: Q01DX005 (ip), vehicle: Klucel (hydroxypropylcellulose) (HPC)): 102 % of control
T/C (dose: 100.0 mg/kg/injection, schedule: Q01DX005 (ip), vehicle: Klucel (hydroxypropylcellulose) (HPC)): 98 % of control
T/C (dose: 200.0 mg/kg/injection, schedule: Q01DX005 (ip), vehicle: Klucel (hydroxypropylcellulose) (HPC)): 93 % of control

COc1cc([N+](=O)[O-])cc2c1OC1(N=C2)Sc2ccccc2N1C (stereo not drawn)
T/C (dose: 100.0 mg/kg/injection, schedule: Q01DX001 (ip), vehicle: saline): 103 % of control
T/C (dose: 200.0 mg/kg/injection, schedule: Q01DX001 (ip), vehicle: saline): 100 % of control
T/C (dose: 400.0 mg/kg/injection, schedule: Q01DX001 (ip), vehicle: saline): 103 % of control

Cc1c2cc[n+](C)c(C)c2cc2c1[nH]c1ccc(O)cc12
T/C (dose: 10.0 mg/kg/injection, schedule: Q04DX002 (ip), vehicle: water): 157 % of control
T/C (dose: 20.0 mg/kg/injection, schedule: Q04DX002 (ip), vehicle: water): 162 % of control
T/C (dose: 40.0 mg/kg/injection, schedule: Q04DX002 (ip), vehicle: water): 89 % of control
T/C (dose: 50.0 mg/kg/injection, schedule: Q04DX002 (ip), vehicle: water): 88 % of control

Cc1cc(/C=C\c2ccc3ccccc3[n+]2C)c(O)c2ncccc12
T/C [3]: 114 % of control
T/C (dose: 25.0 mg/kg/injection, schedule: Q01DX009 (ip), vehicle: saline with Tween-80): 106 % of control

CC1OC(=O)C(C)C1=O (stereo not drawn)
T/C (dose: 50.0 mg/kg/injection, schedule: Q01DX005 (ip), vehicle: saline): 104 % of control
T/C [1]: 92 % of control
T/C [2]: 113 % of control

CC1(C(=O)O)C2[Se]c3[se]ccc3C2C1(C)C(=O)O (stereo not drawn)
T/C [4]: 104 % of control
T/C [5]: 96 % of control
T/C [6]: 102 % of control

O=C1C2=C(C(=O)C3=C1C1C=CC3C1)C1C=CC2C1
T/C (dose: 100.0 mg/kg/injection, schedule: Q04DX003 (ip), vehicle: Klucel (hydroxypropylcellulose) (HPC)): 118 % of control
T/C (dose: 200.0 mg/kg/injection, schedule: Q04DX003 (ip), vehicle: Klucel (hydroxypropylcellulose) (HPC)): 102 % of control
T/C (dose: 400.0 mg/kg/injection, schedule: Q04DX003 (ip), vehicle: Klucel (hydroxypropylcellulose) (HPC)): 96 % of control

C1CSC(SCCCSC2SCCCS2)SC1
T/C (dose: 100.0 mg/kg/injection, schedule: Q04DX003 (ip), vehicle: saline with Tween-80): 99 % of control
T/C (dose: 200.0 mg/kg/injection, schedule: Q04DX003 (ip), vehicle: saline with Tween-80): 104 % of control
T/C (dose: 400.0 mg/kg/injection, schedule: Q04DX003 (ip), vehicle: saline with Tween-80): 94 % of control

c1ccc(N2N=NC3CCOC32)cc1 (stereo not drawn)
T/C [4]: 94 % of control
T/C [5]: 102 % of control
T/C [6]: 106 % of control

N#CC1C(=O)NC(=O)C(C#N)C1c1cccc(O)c1 (stereo not drawn)
T/C [7]: 96 % of control
T/C [8]: 101 % of control
T/C [9]: 97 % of control

CCN(CC)CCNC1CC(C)CC(C)(C)C1 (stereo not drawn)
T/C [4]: 103 % of control
T/C [5]: 101 % of control

FC(F)(F)CO[Te](OCC(F)(F)F)(OCC(F)(F)F)OCC(F)(F)F
T/C (dose: 12.5 mg/kg/injection, schedule: Q01DX001 (ip), vehicle: saline with Tween-80): 106 % of control

CN1NC(c2ccccc2)NN(C)C1=S
T/C (dose: 60.0 mg/kg/injection, schedule: Q01DX005 (ip), vehicle: Klucel (hydroxypropylcellulose) (HPC)): 101 % of control
T/C (dose: 120.0 mg/kg/injection, schedule: Q01DX005 (ip), vehicle: Klucel (hydroxypropylcellulose) (HPC)): 98 % of control
T/C (dose: 240.0 mg/kg/injection, schedule: Q01DX005 (ip), vehicle: Klucel (hydroxypropylcellulose) (HPC)): 106 % of control

Cc1ccc2ccccc2c1NS(=O)(=O)c1ccccc1
T/C (dose: 100.0 mg/kg/injection, schedule: Q01DX001 (ip), vehicle: saline with Tween-80): 95 % of control
T/C (dose: 200.0 mg/kg/injection, schedule: Q01DX001 (ip), vehicle: saline with Tween-80): 95 % of control
T/C (dose: 400.0 mg/kg/injection, schedule: Q01DX001 (ip), vehicle: saline with Tween-80): 91 % of control

O=c1oc2ccccc2cc1-n1nnc2cc([N+](=O)[O-])ccc21
T/C [10]: 91 % of control
T/C [11]: 89 % of control
T/C [12]: 99 % of control

O=C(O)CSCSCC(=O)O
T/C (dose: 100.0 mg/kg/injection, schedule: Q04DX003 (ip), vehicle: saline): 100 % of control
T/C (dose: 200.0 mg/kg/injection, schedule: Q04DX003 (ip), vehicle: saline): 104 % of control

Brc1cc2c(cc1CC1NCCc3cc4c(cc31)OCO4)OCO2 (stereo not drawn)
T/C (dose: 50.0 mg/kg/injection, schedule: Q01DX001 (ip), vehicle: saline + alcohol): 97 % of control
T/C (dose: 100.0 mg/kg/injection, schedule: Q01DX001 (ip), vehicle: saline + alcohol): 100 % of control
T/C (dose: 200.0 mg/kg/injection, schedule: Q01DX001 (ip), vehicle: saline + alcohol): 103 % of control

O=C1CCCCC(=O)Nc2ccc3nc4ccccc4c(c3c2)SCCCCCCCCSc2c3ccccc3nc3ccc(cc23)N1
T/C [10]: 101 % of control
T/C [11]: 110 % of control
T/C [12]: 91 % of control

CC1(C)CC([P+](c2ccccc2)(c2ccccc2)c2ccccc2)=NN1
T/C (dose: 0.78 mg/kg/injection, schedule: Q01DX009 (ip), vehicle: saline with Tween-80): 115 % of control and 119 % of control
T/C (dose: 12.5 mg/kg/injection, schedule: Q01DX001 (ip), vehicle: saline): 123 % of control
T/C [3]: 100 % of control
T/C (dose: 25.0 mg/kg/injection, schedule: Q01DX001 (ip), vehicle: saline): 122 % of control

COC(=O)c1cc(C)c(C)cc1NC1OC(CO)C(O)C1O (stereo not drawn)
T/C [10]: 101 % of control
T/C [11]: 95 % of control
T/C [12]: 97 % of control

CN1C(=O)C(=O)N(CCCN2CCN(CCCN3C(=O)C(=O)N(C)C3=O)CC2)C1=O
T/C [7]: 104 % of control
T/C [8]: 106 % of control
T/C [9]: 98 % of control

CC(=O)Nc1ccc(S(=O)(=O)Nc2c(N)[nH]c(=S)[nH]c2=O)cc1
T/C [10]: 97 % of control
T/C [11]: 98 % of control
T/C [12]: 97 % of control

COC(F)C(C)=O (stereo not drawn)
T/C (dose: 100.0 mg/kg/injection, schedule: Q01DX001 (ip), vehicle: other): 103 % of control
T/C (dose: 200.0 mg/kg/injection, schedule: Q01DX001 (ip), vehicle: other): 101 % of control
T/C (dose: 400.0 mg/kg/injection, schedule: Q01DX001 (ip), vehicle: other): 112 % of control

From PubChem BioAssay AID330 (DTP/NCI, 2004)
